The nature of the assay: Commercial scale boiler comparison of oxygen scavenging. The procedure:
Commercial scale comparisons were made between carbohydrazide and hydrazine. The tests were run on a system including a deaerator which treats a mixture of feed water and condensate at 60 p.s.i. and 300°-310° F. before it is fed to a first stage heater at 160 p.s.i. and 360°-366° F. and a second stage heater at 400 p.s.i. and 446°-450° F. The second stage heater then feeds into three boilers: a combination boiler at 1,275 p.s.i., a first power boiler at 1,275 p.s.i. and a second power boiler at 400 p.s.i. The treatment chemicals were fed alternatively at the deaerator and just down line from it.

In the case of `NNC(=O)NN` [Carbohydrazide, N, N' diaminourea], under “carbohydrazide levels half those of hydrazine”, the “Oxygen scavenging relative to hydrazine, various points” value is recorded as “comparable or superior to the hydrazine”. For the same compound, the “Oxygen scavenging relative to hydrazine at 360° F.” value (just past first stage heater, carbohydrazide at 50% of hydrazine level) was “scavenged the oxygen more efficiently than the hydrazine”. The “Oxygen scavenging relative to hydrazine at 446° F.” value (just past second stage heater, carbohydrazide at 50% of hydrazine level) is “scavenged the oxygen more efficiently than the hydrazine”. Further, for the setting “just past the deaerator, carbohydrazide at 50% of hydrazine level”, the “Oxygen scavenging relative to hydrazine at 300° F.” value is reported as “comparable with the hydrazine”.
